Values of other authors, collected in US20050233005A1, “Use of glycosaminoglycans and zinc derivatives for insect bites, stings and the like” (priority 2004, published 2005).

Columns and labels:
[1] = topical applications and oral administration, animal models and humans (SCCNFP report, 2003)
[2] = tested on: porcine wounds; conditions: topical application (Tarnow et al., 1994; Agren et al., 2001)
[3] = tested on: pruritus caused by mosquito bites; conditions: administered prophylactically (Karppinen et al., 2002)
[4] = tested on: diabetic foot wounds; conditions: in wound dressings (Vazquez et al., 2003)
[5] = tested on: skin wound; conditions: topical application (Chen and Abatengelo, 1999)

## [O]=[Zn] [zinc oxide]
[1]
  toxicity: little or no toxicity
[2]
  release of growth factors: enhanced

## CC(C)(C)c1ccc(C(=O)CCCN2CCC(OC(c3ccccc3)c3ccccc3)CC2)cc1 [ebastine]
[3]
  pruritus caused by mosquito bites: significantly decrease

## O=S(=O)([O-])[O-].[Zn+2] [zinc sulphate]
[1]
  toxicity: little or no toxicity

## O=C(O)COCCN1CCN(C(c2ccccc2)c2ccc(Cl)cc2)CC1 (stereo not shown) [cetirizine]
[3]
  pruritus caused by mosquito bites: significantly decrease

## Hyaluronic acid [HA]
[4]
  healing of diabetic foot wounds: beneficial
[5]
  skin wound healing: accelerate
